# Measured values as given in patent publication US11690810B2, “Combination treatment of bacterial infection” (The Chinese University of Hong Kong, priority 2018, dated 2023).
# Several values for one entry are separate records, joined by “and”; a condition that tells them apart may be missing. Identical values can stand only once.
# Experiments:
# Test in all cases: MIC and checkerboard (FIC) assay
# CA MRSA W48 = conditions: W48
# [1] = tested on: clinical fusidic acid resistant MRSA strain 73621; format: cell-based, Staphylococcus aureus; conditions: for FIC / MIC combine: 73621
# CA MRSA W46 = conditions: W46
# CA MRSA W103 = conditions: W103
# HA MRSA W233 = tested on: HA MRSA W233
# HA MRSA W234 = conditions: W234
# CA-MRSA strain ST30 = format: cell-based, Staphylococcus aureus; conditions: ST30
# [2] = tested on: clinical fusidic acid resistant MRSA strain 96591; format: cell-based, Staphylococcus aureus; conditions: for FIC / MIC combine: 96591
# HA MRSA W238 = tested on: HA MRSA W238
# CA MRSA W113 = conditions: W113
# CA MRSA W44 = conditions: W44
# HA MRSA W231 = tested on: HA MRSA W231
# HA MRSA W232 = conditions: W232
# [3] = tested on: S. aureus SA-APH2″-AAC6′ (APH2), resistant to gentamicin; conditions: for FIC / MIC combine: APH2
# CA MRSA W106 = conditions: W106
# CA MRSA W114 = conditions: W114
# [4] = tested on: clinical fusidic acid resistant MRSA strain 82356; format: cell-based, Staphylococcus aureus; conditions: for FIC / MIC combine: 82356
# HA MRSA W235 = conditions: W235
# CA MRSA W101 = conditions: W101
smiles,measurement,setting,value
C=C(C)[C@H](CC=C(C)C)Cc1c(O)cc(OC)c(C(=O)/C=C/c2ccc(O)cc2O)c1O [Kuraridin],MIC alone,CA MRSA W48,8 µg/mL
same,FIC,CA MRSA W48; ECG with Kur,0.5
same,MIC combine,CA MRSA W48; ECG with Kur,4 µg/mL
same,FIC,CA MRSA W48; ECG+Kur+Van,0.25
same,MIC combine,CA MRSA W48; ECG+Kur+Van,2 µg/mL
same,MIC alone,CA MRSA W48; Table 5,8 µg/mL
same,MIC alone,[1]; 73621 (fusidic acid resistant),8 µg/mL
same,FIC,[1]; ECG+Kur+Fus,0.5
same,MIC combine,[1]; ECG+Kur+Fus,4 µg/mL
same,FIC,"[1]; ECG+Kur, no Fus",0.5
same,MIC combine,"[1]; ECG+Kur, no Fus",4 µg/mL
same,MIC alone,CA MRSA W46,8 µg/mL
same,FIC,CA MRSA W46; ECG with Kur,0.5
same,MIC combine,CA MRSA W46; ECG with Kur,4 µg/mL
same,FIC,CA MRSA W46; ECG+Kur+Van,0.5
same,MIC combine,CA MRSA W46; ECG+Kur+Van,4 µg/mL
same,MIC alone,CA MRSA W46; Table 5,8 µg/mL
same,MIC alone,CA MRSA W103,8 µg/mL
same,FIC,CA MRSA W103; ECG with Kur,0.5
same,MIC combine,CA MRSA W103; ECG with Kur,4 µg/mL
same,MIC alone,HA MRSA W233; W233,4 µg/mL
same,MIC alone,HA MRSA W233; W233 (gentamicin resistant),8 µg/mL
same,FIC,"HA MRSA W233; W233, ECG with Kur",0.5
same,MIC combine,"HA MRSA W233; W233, ECG with Kur",2 µg/mL
same,FIC,"HA MRSA W233; W233, ECG+Kur+Gen",0.5
same,MIC combine,"HA MRSA W233; W233, ECG+Kur+Gen",4 µg/mL
same,FIC,"HA MRSA W233; W233, ECG+Kur+Van",0.25
same,MIC combine,"HA MRSA W233; W233, ECG+Kur+Van",2 µg/mL
same,FIC,"HA MRSA W233; W233, ECG+Kur, no Gen",1
same,MIC combine,"HA MRSA W233; W233, ECG+Kur, no Gen",8 µg/mL
same,MIC alone,"HA MRSA W233; W233, Table 5",8 µg/mL
same,MIC alone,HA MRSA W234,8 µg/mL
same,FIC,HA MRSA W234; ECG with Kur,0.5
same,MIC combine,HA MRSA W234; ECG with Kur,4 µg/mL
same,MIC alone,CA-MRSA strain ST30,8 µg/mL
same,FIC,CA-MRSA strain ST30; ECG with Kur,0.5
same,MIC combine,CA-MRSA strain ST30; ECG with Kur,4 µg/mL
same,FIC,CA-MRSA strain ST30; ECG+Kur+Van,0.125
same,MIC combine,CA-MRSA strain ST30; ECG+Kur+Van,1 µg/mL
same,MIC alone,CA-MRSA strain ST30; Table 5,8 µg/mL
same,MIC alone,"[2]; 96591 (fusidic acid resistant), listed as Kur",4 µg/mL and 8 µg/mL
same,FIC,[2]; ECG+Kur+Fus,0.5
same,MIC combine,[2]; ECG+Kur+Fus,2 µg/mL
same,FIC,"[2]; ECG+Kur, no Fus",0.5
same,MIC combine,"[2]; ECG+Kur, no Fus",4 µg/mL
same,MIC alone,HA MRSA W238; W238,8 µg/mL
same,MIC alone,HA MRSA W238; W238 (gentamicin resistant),8 µg/mL
same,FIC,"HA MRSA W238; W238, ECG with Kur",0.5
same,MIC combine,"HA MRSA W238; W238, ECG with Kur",4 µg/mL
same,FIC,"HA MRSA W238; W238, ECG+Kur+Gen",0.25
same,MIC combine,"HA MRSA W238; W238, ECG+Kur+Gen",2 µg/mL
same,FIC,"HA MRSA W238; W238, ECG+Kur+Van",0.25
same,MIC combine,"HA MRSA W238; W238, ECG+Kur+Van",2 µg/mL
same,FIC,"HA MRSA W238; W238, ECG+Kur, no Gen",0.5
same,MIC combine,"HA MRSA W238; W238, ECG+Kur, no Gen",4 µg/mL
same,MIC alone,"HA MRSA W238; W238, Table 5",8 µg/mL
same,MIC alone,CA MRSA W113,8 µg/mL
same,FIC,CA MRSA W113; ECG with Kur,0.5
same,MIC combine,CA MRSA W113; ECG with Kur,4 µg/mL
same,MIC alone,CA MRSA W44,8 µg/mL
same,FIC,CA MRSA W44; ECG with Kur,0.25
same,MIC combine,CA MRSA W44; ECG with Kur,2 µg/mL
same,FIC,CA MRSA W44; ECG+Kur+Van,0.25
same,MIC combine,CA MRSA W44; ECG+Kur+Van,2 µg/mL
same,MIC alone,CA MRSA W44; Table 5,8 µg/mL
same,MIC alone,HA MRSA W231; W231,4 µg/mL
same,MIC alone,HA MRSA W231; W231 (gentamicin resistant),8 µg/mL
same,FIC,"HA MRSA W231; W231, ECG with Kur",0.25
same,MIC combine,"HA MRSA W231; W231, ECG with Kur",1 µg/mL
same,FIC,"HA MRSA W231; W231, ECG+Kur+Gen",0.25
same,MIC combine,"HA MRSA W231; W231, ECG+Kur+Gen",2 µg/mL
same,FIC,"HA MRSA W231; W231, ECG+Kur+Van",0.125
same,MIC combine,"HA MRSA W231; W231, ECG+Kur+Van",1 µg/mL
same,FIC,"HA MRSA W231; W231, ECG+Kur, no Gen",0.25
same,MIC combine,"HA MRSA W231; W231, ECG+Kur, no Gen",2 µg/mL
same,MIC alone,"HA MRSA W231; W231, Table 5",8 µg/mL
same,MIC alone,HA MRSA W232,8 µg/mL
same,FIC,HA MRSA W232; ECG with Kur,0.25
same,MIC combine,HA MRSA W232; ECG with Kur,2 µg/mL
same,FIC,HA MRSA W232; ECG+Kur+Van,0.25
same,MIC combine,HA MRSA W232; ECG+Kur+Van,2 µg/mL
same,MIC alone,HA MRSA W232; Table 5,8 µg/mL
same,MIC alone,[3]; APH2 (gentamicin resistant),8 µg/mL
same,FIC,[3]; ECG+Kur+Gen,0.25
same,MIC combine,[3]; ECG+Kur+Gen,2 µg/mL
same,FIC,"[3]; ECG+Kur, no Gen",0.25
same,MIC combine,"[3]; ECG+Kur, no Gen",2 µg/mL
same,MIC alone,CA MRSA W106,8 µg/mL
same,FIC,CA MRSA W106; ECG with Kur,0.25
same,MIC combine,CA MRSA W106; ECG with Kur,2 µg/mL
same,MIC alone,CA MRSA W114,8 µg/mL
same,FIC,CA MRSA W114; ECG with Kur,0.5
same,MIC combine,CA MRSA W114; ECG with Kur,4 µg/mL
same,MIC alone,[4]; 82356 (fusidic acid resistant),8 µg/mL
same,FIC,[4]; ECG+Kur+Fus,0.25
same,MIC combine,[4]; ECG+Kur+Fus,4 µg/mL
same,FIC,"[4]; ECG+Kur, no Fus",0.5
same,MIC combine,"[4]; ECG+Kur, no Fus",4 µg/mL
same,MIC alone,HA MRSA W235,8 µg/mL
same,FIC,HA MRSA W235; ECG with Kur,0.5
same,MIC combine,HA MRSA W235; ECG with Kur,4 µg/mL
same,MIC alone,CA MRSA W101,8 µg/mL
same,FIC,CA MRSA W101; ECG with Kur,0.5
same,MIC combine,CA MRSA W101; ECG with Kur,4 µg/mL
